Results: US10919852B2, “Immunomodulator compounds” (CHEMOCENTRYX, INC., priority 2017, dated 2021)

biological target: human PD-L1 / Human PD-1 (Homo sapiens (Human), UniProt Q9NZQ7); assay: Enzyme-Linked Immunosorbent Assay (ELISA), PD-1/PD-L1 binding; details: plate-coated human PD-L1, biotinylated human PD-1
Procedure: Biological Example: Enzyme-Linked Immunosorbent Assay—ELISA
96 Well plates were coated with […] of human PD-L1 (obtained from R&D) in PBS overnight at 4° C. The wells were then blocked with 2% BSA in PBS (W/V) with 0.05% TWEEN-20 for 1 hour at 37° C. The plates were washed 3 times with PBS/0.05% TWEEN-20 and the compounds were serial diluted (1:5) in dilution medium and added to the ELISA plates. Human PD-1 and biotin 0.3 μg/mL (ACRO Biosystems) were added and incubated for 1 hour at 37° C. then washed 3 times with PBS/0.05% TWEEN-20. A second block was performed with 2% BSA in PBS (W/V)/0.05% TWEEN-20 for 10 min at 37° C. and was washed 3 times with PBS/0.05% TWEEN-20. Streptavidin-HRP was added for 1 hour at 37° C. then washed 3 times with PBS/0.05% TWEEN-20. TMB substrate was added and reacted for 20 min at 37° C. A stop solution (2 N aqueous H2SO4) was added. The absorbance was read at 450 nm using a micro-plate spectrophotometer.

Sequence of human PD-L1 / Human PD-1 (Q9NZQ7 19-239): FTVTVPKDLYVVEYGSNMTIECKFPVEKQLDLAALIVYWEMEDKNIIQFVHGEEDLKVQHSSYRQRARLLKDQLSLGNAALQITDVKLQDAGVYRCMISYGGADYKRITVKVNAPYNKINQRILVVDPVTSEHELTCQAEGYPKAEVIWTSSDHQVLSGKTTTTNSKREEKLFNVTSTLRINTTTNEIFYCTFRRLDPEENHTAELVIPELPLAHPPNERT

Compound | IC50 [nM]
Cc1c(OCCCN2CCC(O)CC2)cccc1-c1cccc2c1CCC2Oc1cc(OCc2cc(C#N)cc(C#N)c2)c(CN[C@@H](CO)C(=O)O)cc1Cl (stereo partly drawn) | < 5
Cc1c(OCCCN2CCC(O)CC2)cccc1-c1cccc2c1CCC2Oc1cc(OCc2cc(C#N)cc(C#N)c2)c(CN[C@@H]2CCCC[C@@H]2O)cc1Cl (stereo partly drawn) | < 5
Cc1c(OCCCN2CCC(O)CC2)cccc1-c1cccc2c1CC[C@@H]2Oc1cc(OCc2cncc(C#N)c2)c(CN[C@H](C(=O)O)[C@@H](C)O)cc1Cl | < 5
C[C@@H](O)[C@H](NCc1cc(Cl)c(O[C@H]2CCc3c(-c4cccc(OCCCN5CCC(O)CC5)c4F)cccc32)cc1OCc1cncc(C#N)c1)C(=O)O | < 5
C[C@@](CO)(NCc1cc(Cl)c(O[C@H]2CCc3c(-c4cccc(OCCCN5CCC(O)CC5)c4F)cccc32)cc1OCc1cncc(C#N)c1)C(=O)O | < 5
CCOc1cc(O[C@H]2CCc3c(-c4cccc(OCCCN5CCC(O)CC5)c4C)cccc32)c(Cl)cc1CN[C@@H](CO)C(=O)O | < 5
CCOc1cc(O[C@H]2CCc3c(-c4cccc(OCCCN5CC[C@@H](O)C5)c4C)cccc32)c(Cl)cc1CN[C@@H]1CCCC[C@@H]1O | 5 to 500
CCOc1cc(O[C@H]2CCc3c(-c4cccc(OCCCN5CC[C@@H](O)C5)c4C)cccc32)c(Cl)cc1CN[C@@H](CO)C(=O)OC(C)C | 5 to 500
CCOc1cc(O[C@H]2CCc3c(-c4cccc(OCCCN5CC[C@@H](O)C5)c4C)cccc32)c(Cl)cc1CN[C@@](C)(CO)C(=O)OC(C)C | 5 to 500
CCOc1cc(O[C@H]2CCc3c(-c4cccc(OCCCN5CC[C@@H](O)C5)c4C)cccc32)c(Cl)cc1CN1CCCC[C@H]1C(=O)O | 5 to 500
Cc1c(OCCCN2CCC(O)CC2)cccc1-c1cccc2c1CC[C@@H]2Oc1cc(OCc2cncc(C#N)c2)c(CN[C@H](C(N)=O)[C@@H](C)O)cc1Cl | < 5
Cc1c(OCCCN2CCC(O)CC2)cccc1-c1cccc2c1CC[C@@H]2Oc1cc(OCc2cncc(C#N)c2)c(CN[C@@H](CO)C(N)=O)cc1Cl | < 5
Cc1c(OCCCN2CCC(O)CC2)cccc1-c1cccc2c1CC[C@@H]2Oc1cc(OCc2cncc(C#N)c2)c(CN[C@H](C(=O)NS(C)(=O)=O)[C@@H](C)O)cc1Cl | < 5
Cc1c(OCCCN2CCC(O)CC2)cccc1-c1cccc2c1CC[C@@H]2Oc1cc(OCc2cncc(C#N)c2)c(CN2CCC(O)CC2)cc1Cl | < 5
Cc1c(OCCCN2CCC(O)CC2)cccc1-c1cccc2c1CC[C@@H]2Oc1cc(OCc2cncc(C#N)c2)c(CN2CC[C@H](O)C2)cc1Cl | < 5
CCOc1cc(O[C@H]2CCc3c(-c4cccc(OCCCN5CC[C@@H](O)C5)c4C)cccc32)c(Cl)cc1CNC(CO)CO | < 5
CCOc1cc(O[C@H]2CCc3c(-c4cccc(OCCCN5CC[C@@H](O)C5)c4C)cccc32)c(Cl)cc1CNC(C)(CO)CO | < 5
Cc1c(OCCCN2CCC(O)CC2)cccc1-c1cccc2c1CC[C@@H]2Oc1cc(OCc2cncc(C#N)c2)c(CN2CC[C@@H](O)C2)cc1Cl | < 5
Cc1c(OCCCN2CCC(O)CC2)cccc1-c1cccc2c1CC[C@@H]2Oc1cc(OCc2cncc(C#N)c2)c(CNCC2CCC(=O)N2)cc1Cl (stereo partly drawn) | < 5

Compound | IC50 [nM]
Cc1c(OCCCN2CCC(O)CC2)cccc1-c1cccc2c1CC[C@@H]2Oc1cc(OCc2cncc(C#N)c2)c(CNCC(C)(C)O)cc1Cl | < 5
Cc1c(OCCCN2CCC(O)CC2)cccc1-c1cccc2c1CC[C@@H]2Oc1cc(OCc2cncc(C#N)c2)c(CN2CC(C(=O)O)C2)cc1Cl | < 5
Cc1c(OCCCN2CCC(O)CC2)cccc1-c1cccc2c1CC[C@@H]2Oc1cc(OCc2cncc(C#N)c2)c(CN[C@@H]2CCCC[C@H]2O)cc1Cl | < 5
Cc1c(OCCCN2CCC(O)CC2)cccc1-c1cccc2c1CC[C@@H]2Oc1cc(OCc2cncc(C#N)c2)c(CNC(C)(CO)CO)cc1Cl | 5 to 500
Cc1c(OCCCN2CCC(O)CC2)cccc1-c1cccc2c1CC[C@@H]2Oc1cc(OCc2cncc(C#N)c2)c(CN2CC(O)C2)cc1Cl | < 5
Cc1c(OCCCN2CCC(O)CC2)cccc1-c1cccc2c1CC[C@@H]2Oc1cc(OCc2cncc(C#N)c2)c(CNCc2cn(C)cn2)cc1Cl | < 5
Cc1c(OCCCN2CCC(O)CC2)cccc1-c1cccc2c1CC[C@@H]2Oc1cc(OCc2cncc(C#N)c2)c(CN[C@@H]2CCC[C@H]2O)cc1Cl | < 5
Cc1c(OCCCN2CCC(O)CC2)cccc1-c1cccc2c1CC[C@@H]2Oc1cc(OCc2cncc(C#N)c2)c(CNC2(C(=O)O)CCC2)cc1Cl | < 5
Cc1c(OCCCN2CCC(O)CC2)cccc1-c1cccc2c1CC[C@@H]2Oc1cc(OCc2cncc(C#N)c2)c(CN[C@@H](CNC(=N)N)C(=O)O)cc1Cl | < 5
Cc1c(OCCCN2CCC(O)CC2)cccc1-c1cccc2c1CC[C@@H]2Oc1cc(OCc2cncc(C#N)c2)c(CN2CCC(C)(O)CC2)cc1Cl | < 5
COC(=O)C1(O)CCN(CCCOc2cccc(-c3cccc4c3CC[C@@H]4Oc3cc(OCc4cncc(C#N)c4)c(CN[C@H](C(=O)O)[C@@H](C)O)cc3Cl)c2C)C1 (stereo partly drawn) | < 5
Cc1c(OCCCN2CC(C)(O)C2)cccc1-c1cccc2c1CC[C@@H]2Oc1cc(OCc2cncc(C#N)c2)c(CNCC2CCC(=O)N2)cc1Cl (stereo partly drawn) | < 5
Cc1c(OCCCN2C3CCC2CC(O)C3)cccc1-c1cccc2c1CC[C@@H]2Oc1cc(OCc2cncc(C#N)c2)c(CNCC2CCC(=O)N2)cc1Cl (stereo partly drawn) | < 5
Cc1c(OCCCN2CCC(F)CC2)cccc1-c1cccc2c1CC[C@@H]2Oc1cc(OCc2cncc(C#N)c2)c(CNCC2CCC(=O)N2)cc1Cl (stereo partly drawn) | < 5
Cc1c(OCCCN2CC(O)C2)cccc1-c1cccc2c1CC[C@@H]2Oc1cc(OCc2cncc(C#N)c2)c(CNCC2CCC(=O)N2)cc1Cl (stereo partly drawn) | < 5
N#Cc1cncc(COc2cc(O[C@H]3CCc4c(-c5cccc(OCCCN6CCC(O)CC6)c5Cl)cccc43)c(Cl)cc2CNCC2CCC(=O)N2)c1 (stereo partly drawn) | < 5
C[C@@H](O)[C@H](NCc1cc(Cl)c(O[C@H]2CCc3c(-c4cccc(OCCCN5CCC(O)CC5)c4Cl)cccc32)cc1OCc1cncc(C#N)c1)C(N)=O | < 5
Cc1c(OCCCN2CCC(F)CC2)cccc1-c1cccc2c1CC[C@@H]2Oc1cc(OCc2cncc(C#N)c2)c(CN[C@H](C(N)=O)[C@@H](C)O)cc1Cl | 5 to 500
Cc1c(OCCCN2CCC(O)CC2)cccc1-c1cccc2c1C[C@@H](F)[C@@H]2Oc1cc(OCc2cncc(C#N)c2)c(CN[C@@H](CO)C(=O)O)cc1Cl | < 5

Compound | IC50 [nM]
Cc1c(OCCCN2CCC(O)CC2)cccc1-c1cccc2c1C[C@H](F)[C@@H]2Oc1cc(OCc2cncc(C#N)c2)c(CN[C@H](C(=O)O)[C@@H](C)O)cc1Cl | < 5
Cc1c(OCCCN2CCC(O)CC2)cccc1-c1cccc2c1C[C@H](F)[C@@H]2Oc1cc(OCc2cncc(C#N)c2)c(CN[C@@](C)(CO)C(=O)O)cc1Cl | < 5
Cc1c(OCCCN2CCC(O)CC2)cccc1-c1cccc2c1C[C@H](F)[C@@H]2Oc1cc(OCc2cncc(C#N)c2)c(CN[C@@H]2CCCC[C@@H]2O)cc1Cl | < 5
Cc1c(OCCCN2CC[C@H](F)C2)cccc1-c1cccc2c1CC[C@@H]2Oc1cc(OCc2cncc(C#N)c2)c(CN[C@@H]2CCCC[C@@H]2O)cc1Cl | < 5
Cc1c(OCCCN2CC[C@@H](F)C2)cccc1-c1cccc2c1CC[C@@H]2Oc1cc(OCc2cncc(C#N)c2)c(CN[C@@H]2CCCC[C@@H]2O)cc1Cl | < 5
Cc1c(OCCCN2CCC(O)(C(=O)O)CC2)cccc1-c1cccc2c1CC[C@@H]2Oc1cc(OCc2cncc(C#N)c2)c(CN[C@H](C(=O)O)[C@@H](C)O)cc1Cl | < 5
CC(CO)(CO)NCc1cc(Cl)c(O[C@H]2CCc3c(-c4cccc(OCCCN5CCNC(=O)C5)c4Cl)cccc32)cc1OCc1cncc(C#N)c1 | < 5
N#Cc1cncc(COc2cc(O[C@H]3CCc4c(-c5cccc(OCCCN6CCNC(=O)C6)c5Cl)cccc43)c(Cl)cc2CNC2(C(=O)O)CCC2)c1 | < 5
N#Cc1cncc(COc2cc(O[C@H]3CCc4c(-c5cccc(OCCCN6CC7(CC(F)C7)C6)c5Cl)cccc43)c(Cl)cc2CN[C@@H]2CCCC[C@@H]2O)c1 | < 5
N#Cc1cncc(COc2cc(O[C@H]3CCc4c(-c5cccc(OCCCN6CC7(C6)CC(F)(F)C7)c5Cl)cccc43)c(Cl)cc2CN[C@@H]2CCCC[C@@H]2O)c1 | < 5
Cc1c(OCCCNCC(C)(C)O)cccc1-c1cccc2c1CC[C@@H]2Oc1cc(OCc2cncc(C#N)c2)c(CNCC2CCC(=O)N2)cc1Cl (stereo partly drawn) | < 5
N#Cc1cc(C#N)cc(COc2cc(O[C@@H]3c4cccc(-c5cccc(OCCCN6CC(O)C6)c5Cl)c4C[C@@H]3F)c(Cl)cc2CNC[C@@H]2CCC(=O)N2)c1 | 5 to 500
N#Cc1cncc(COc2cc(O[C@H]3CCc4c(-c5cccc(OCCCN6CCC(F)CC6)c5C(F)(F)F)cccc43)c(Cl)cc2CNCC2CCC(=O)N2)c1 (stereo partly drawn) | 5 to 500
CC(C)(O)[C@H](NCc1cc(Cl)c(O[C@H]2CCc3c(-c4cccc(OCCCN5CCC(F)CC5)c4Cl)cccc32)cc1OCc1cncc(C#N)c1)C(=O)O | < 5
N#Cc1cncc(COc2cc(O[C@H]3CCc4c(-c5cccc(OCCCN6CCC(F)CC6)c5Cl)cccc43)c(Cl)cc2CN2CCCC3(C2)NC(=O)NC3=O)c1 (stereo partly drawn) | 5 to 500
CCOc1cc(O[C@H]2CCc3c(-c4cccc(OCCCN5CCC(F)CC5)c4Cl)cccc32)c(Cl)cc1CN[C@@H]1CCCC[C@@H]1O | 5 to 500
CCOc1cc(O[C@H]2CCc3c(-c4cccc(OCCCN5CCC(F)CC5)c4Cl)cccc32)c(Cl)cc1CNCC1CCC(=O)N1 (stereo partly drawn) | 5 to 500
N#Cc1cncc(COc2cc(O[C@H]3CCc4c(-c5cccc(OCCCN6CCC(F)CC6)c5C#N)cccc43)c(Cl)cc2CNCC2CCC(=O)N2)c1 (stereo partly drawn) | 5 to 500
CC(C)OC(=O)[C@](C)(CO)NCc1cc(Cl)c(O[C@H]2CCc3c(-c4cccc(OCCCN5CC(O)C5)c4Cl)cccc32)cc1OCc1cncc(C#N)c1 | < 5
